Test systems include HCC 2998; MDA-MB-231; K562; CAKI-1; NCI-H23; SF-539; 786-0; HCT-15; SR; RXF 393; IGROV-1; OVCAR-5; OVCAR-4; NCI-H226; PC-3; OVCAR-3; DU-145; CCRF-CEM; SK-MEL-2; EKVX.
Assay in all cases: inhibition of tumour cell growth, NCI panel, 48 h

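These data come from cells grown in 96-well plates and exposed to compound for 48 hours at five concentrations. The concentration for 50% growth inhibition is given as GI50.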 Calls of active or inactive are those of the source. Cut-off read from the data, not from the text of the source: active = GI50 up to about 1.1 µM and inactive = higher.

As for `Cc1[nH]n(C(=N)N)c(=O)c1CCO`, the GI50 with HCC 2998, in the assay on MDA-MB-231, in the assay with K562, with CAKI-1, with NCI-H23 and with SF-539 was > 100 µM (inactive) each time. The GI50 in the assay with 786-0 was 1.67 µM (inactive); in the assay on HCT-15 it was more than 100 µM; with SR, 17.1 µM (inactive); with RXF 393 it was > 100 µM (inactive); with IGROV-1, > 100 µM (inactive); in the assay with OVCAR-5, > 100 µM (inactive). In addition, the GI50 with OVCAR-4, in the assay with NCI-H226, in the assay with PC-3, in the assay on OVCAR-3, with DU-145 and with CCRF-CEM was > 100 µM (inactive) throughout. The GI50 in the assay on SK-MEL-2 is > 100 µM (inactive).

Consider `COc1ccccc1NC(=S)N/N=C/c1ccccn1`, for which the GI50 with EKVX was 0.293 µM (active); with HCC 2998, 2.37 µM (inactive); in the assay on MDA-MB-231, < 0.0166 µM (active); in the assay with K562, < 0.0187 µM (active); with CAKI-1, 0.0817 µM (active); in the assay on NCI-H23, 0.0746 µM (active). Besides, the GI50 in the assay with SF-539 is 0.91 µM (active); in the assay on 786-0 it was 0.157 µM (active); in the assay with HCT-15, 0.227 µM; in the assay on SR it was 0.71 µM (active); in the assay with RXF 393 it was 10.9 µM (inactive); in the assay on OVCAR-5, 0.288 µM (active). The GI50 is 0.619 µM (active) in the assay on OVCAR-4; 2.12 µM (inactive) in the assay on NCI-H226; 0.054 µM (active) in the assay with PC-3; < 0.015 µM (active) in the assay with OVCAR-3; 1.88 µM (inactive) in the assay with DU-145; 0.276 µM (active) in the assay on CCRF-CEM. In addition, the GI50 in the assay with SK-MEL-2 is 2.54 µM (inactive).

`COC(=O)[C@@H](NC(=O)N(Cc1ccccc1)C[C@H](CC(C)C)NC(=O)[C@@H](NC(=O)OC(C)(C)C)C(C)C)C(C)C`: the GI50 in the assay with EKVX, in the assay with HCC 2998, in the assay with MDA-MB-231, in the assay on K562, in the assay on CAKI-1 and in the assay on NCI-H23 was > 100 µM (inactive) throughout. For the same molecule, the GI50 in the assay on SF-539 is > 100 µM (inactive); in the assay on 786-0 it was > 100 µM (inactive); in the assay on HCT-15, more than 100 µM; with SR, > 100 µM (inactive); with RXF 393, > 100 µM (inactive); with OVCAR-5 it was > 100 µM (inactive). Further, the GI50 with OVCAR-4, in the assay with NCI-H226, with PC-3, in the assay with OVCAR-3, in the assay on DU-145 and with SK-MEL-2 was > 100 µM (inactive) in each case.

With `O=c1cccccc1O` [TROPOLONE], the GI50 with EKVX is > 100 µM (inactive); with HCC 2998, 79.8 µM (inactive); in the assay on MDA-MB-231 it was > 100 µM (inactive); in the assay on K562, 35.3 µM (inactive); with CAKI-1 it was 83.6 µM (inactive); in the assay with NCI-H23 it was > 100 µM (inactive). Further, the GI50 in the assay on 786-0 was 55.3 µM (inactive); in the assay on HCT-15 it was 34 µM; with SR, 46.7 µM (inactive); with RXF 393, 26.5 µM (inactive); in the assay with IGROV-1, > 100 µM (inactive); in the assay with OVCAR-5, > 100 µM (inactive). Also, the GI50 is 94 µM (inactive) in the assay with OVCAR-4; > 100 µM (inactive) in the assay with NCI-H226; 83.4 µM (inactive) in the assay with PC-3; 34 µM (inactive) in the assay on OVCAR-3; > 100 µM (inactive) with DU-145; 17.4 µM (inactive) in the assay on CCRF-CEM. For the same molecule, the GI50 in the assay with SK-MEL-2 was > 100 µM (inactive).

For `Cc1cc(=O)oc2c(CNC(CC(C)C)C(=O)O)c(O)ccc12` (stereo not given), the GI50 in the assay on EKVX, in the assay on HCC 2998, with MDA-MB-231, in the assay with K562, in the assay with CAKI-1 and in the assay on NCI-H23 was > 100 µM (inactive) throughout. In addition, the GI50 is > 100 µM (inactive) in the assay on SF-539; > 100 µM (inactive) in the assay on 786-0; more than 100 µM with HCT-15; > 100 µM (inactive) in the assay with SR; > 100 µM (inactive) in the assay with RXF 393; > 100 µM (inactive) in the assay with IGROV-1. In addition, the GI50 in the assay with OVCAR-5, in the assay on OVCAR-4, with NCI-H226, in the assay on PC-3, in the assay on OVCAR-3 and with DU-145 was > 100 µM (inactive) in each case. Further, the GI50 in the assay with SK-MEL-2 is > 100 µM (inactive).

Regarding `OCC1NC(COC2OC(CO)C(O)C(O)C2O)C(O)C(O)C1O` (stereo not given), the GI50 with HCC 2998, in the assay with MDA-MB-231, with K562, with CAKI-1, with NCI-H23 and with SF-539 was > 100 µM (inactive) each time. Further, the GI50 is > 100 µM (inactive) in the assay on 786-0; more than 100 µM in the assay with HCT-15; > 100 µM (inactive) with SR; > 100 µM (inactive) with RXF 393; > 100 µM (inactive) in the assay on IGROV-1; > 100 µM (inactive) with OVCAR-5. Further, the GI50 in the assay on OVCAR-4, in the assay on NCI-H226, with PC-3, in the assay with OVCAR-3, with DU-145 and with CCRF-CEM was > 100 µM (inactive) in each case. Also, the GI50 with SK-MEL-2 is > 100 µM (inactive).

As to `O=C(OC1=CCN(Br)C1=O)C1=C(O)C(=O)N(Br)C1`, the GI50 in the assay with EKVX was 25.1 µM (inactive); with HCC 2998, 53.8 µM (inactive); in the assay with MDA-MB-231, 29.2 µM (inactive); in the assay on K562, 29.1 µM (inactive); with CAKI-1, 58.7 µM (inactive); in the assay on NCI-H23 it was 32.4 µM (inactive). Also, the GI50 with 786-0 was 16.7 µM (inactive); in the assay on HCT-15, 57.3 µM; with SR, 21.4 µM (inactive); with RXF 393, 20 µM (inactive); in the assay on IGROV-1, 39.1 µM (inactive); with OVCAR-5, 21.1 µM (inactive). For the same molecule, the GI50 in the assay with OVCAR-4 was 30 µM (inactive); in the assay with NCI-H226 it was 54 µM (inactive); in the assay with PC-3, 29.3 µM (inactive); in the assay on OVCAR-3, 20.8 µM (inactive); in the assay with DU-145, 53.2 µM (inactive); with CCRF-CEM it was 27.1 µM (inactive). The GI50 in the assay with SK-MEL-2 was 26.4 µM (inactive).

As for `O=C(CCC=C(S(=O)(=O)c1ccccc1)S(=O)(=O)c1ccccc1)c1ccccc1`, the GI50 in the assay on EKVX is 12.7 µM (inactive); with HCC 2998, 7.66 µM (inactive); in the assay with MDA-MB-231, 8.04 µM (inactive); in the assay on K562, 3.73 µM (inactive); with CAKI-1, 5.96 µM (inactive); in the assay on SF-539 it was 2.96 µM (inactive). The GI50 with 786-0 was 3.21 µM (inactive); in the assay with HCT-15, 5.98 µM; in the assay with SR, 3.01 µM (inactive); in the assay with RXF 393, 4.18 µM (inactive); in the assay on IGROV-1, 12.3 µM (inactive); in the assay with OVCAR-5 it was 10.7 µM (inactive). For the same molecule, the GI50 was 9.33 µM (inactive) in the assay with OVCAR-4; 17.4 µM (inactive) in the assay on NCI-H226; 3.64 µM (inactive) with PC-3; 4.27 µM (inactive) in the assay on OVCAR-3; 5.64 µM (inactive) in the assay on DU-145; 2.38 µM (inactive) in the assay with SK-MEL-2.

(Values after ChEMBL document CHEMBL1201862, “PubChem BioAssay data set” (2004).)
